Measured values published in patent publication US20110312984A1, “STAT3 INHIBITORS” (priority 2008, published 2011).
pIC50: −log10 of the molar value. “Also recorded” adds a separate entry of the source. Where two headings read alike, the source gives them in different places.

What was measured:
Stat1 = target: T1, Stat1 (Homo sapiens, UniProt P42224); experiment: Immunoblot assay: IFN-γ-mediated phosphorylation of Stat1 in HepG2 cells; type: cell-based; settings: 300 μM, 1 hour at 37° C. before IFN-γ stimulation
T1 construct: endogenous in cells; host or cells: HepG2
T1 sequence (P42224 1-750): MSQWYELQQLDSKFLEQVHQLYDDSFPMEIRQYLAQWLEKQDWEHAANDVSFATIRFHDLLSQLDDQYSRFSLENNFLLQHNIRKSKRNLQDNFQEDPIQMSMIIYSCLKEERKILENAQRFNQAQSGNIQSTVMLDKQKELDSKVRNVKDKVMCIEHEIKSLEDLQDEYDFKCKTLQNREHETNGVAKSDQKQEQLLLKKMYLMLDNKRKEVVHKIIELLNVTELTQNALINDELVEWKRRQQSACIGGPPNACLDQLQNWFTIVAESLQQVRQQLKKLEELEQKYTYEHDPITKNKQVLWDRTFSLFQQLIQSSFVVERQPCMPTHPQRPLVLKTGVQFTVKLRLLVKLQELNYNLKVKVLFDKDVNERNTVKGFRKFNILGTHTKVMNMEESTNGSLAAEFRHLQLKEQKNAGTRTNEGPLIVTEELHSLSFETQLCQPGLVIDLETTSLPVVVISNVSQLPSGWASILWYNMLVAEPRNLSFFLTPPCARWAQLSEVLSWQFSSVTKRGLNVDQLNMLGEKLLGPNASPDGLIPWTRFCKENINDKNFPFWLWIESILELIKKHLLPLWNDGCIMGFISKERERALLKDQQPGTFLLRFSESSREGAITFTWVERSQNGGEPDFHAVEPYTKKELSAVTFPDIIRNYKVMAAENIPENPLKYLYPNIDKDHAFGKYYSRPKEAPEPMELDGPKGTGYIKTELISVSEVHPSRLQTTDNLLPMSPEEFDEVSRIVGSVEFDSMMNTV
Procedure: Immunoblot assay. The human hepatocellular carcinoma cell line (HepG2) was grown in 6-well plates under standard conditions. Cells were pretreated with compounds (0, 1, 3, 10, 30, 100 and 300 uM) for 1 hour then stimulated under optimal conditions with either interferon gamma (IFN-γ; 30 ng/ml for 30 min) to activate Stat1 or interleukin-6 (IL-6; 30 ng/ml for 30 min) to activate Stat3 (30-31). Cultures were then harvested and proteins extracted using high-salt buffer, as described (Shao et al., 2006). Briefly, extracts were mixed with 2× sodium dodecyl sulfate (SDS) sample buffer (125 mmol/L Tris-HCL pH 6.8; 4% SDS; 20% glycerol; 10% 2-mercaptoethanol) at a 1:1 ratio and heated for 5 minutes at 100° C. Proteins (20 μg) were separated by 7.5% SDS-PAGE and transferred to polyvinylidene fluoride (PVDF) membrane (Millipore, Waltham, Mass.) and immunoblotted. Prestained molecular weight markers (Biorad, Hercules, Calif.) were included in each gel. Membranes were probed serially with antibody against Stat1 pY^701 or Stat3 pY^705 followed by antibody against Stat1 or Stat3 (Transduction labs, Lexington, Ky.) then antibody against β-actin (Abcam, Cambridge, Mass.). Membranes were stripped between antibody probing using Restore™ Western Blot Stripping Buffer (Thermo Fisher Scientific Inc., Waltham, Mass.) per the manufacturer's instructions. Horseradish peroxidase-conjugated goat-anti-mouse IgG was used as the secondary antibody (Invitrogen Carlsbad, Calif.) and the membranes were developed with enhanced chemiluminescence (ECL) detection system (Amersham Life Sciences Inc.; Arlington Heights, Ill.).
EXP IIC. Ligand-mediated pStat3 and pStat1 inhibition assays. […] Briefly, human hepatocellular carcinoma cells (HepG2) are grown in 6-well plates and pretreated with compounds (0, 0.1, 0.3, 1, 3, 10, 30, 100 μM) for 1 hour then stimulated under optimal conditions with either interleukin-6 (IL-6; 30 ng/ml for 30 min) to activate Stat3 or interferon gamma (IFN-γ; 30 ng/ml for 30 min) to activate Stat1. Cells are harvested and proteins extracted using high-salt buffer, mixed with 2× sodium dodecyl sulfate (SDS) sample buffer (125 mmol/L Tris-HCL pH 6.8; 4% SDS; 20% glycerol; 10% 2-mercaptoethanol) at a 1:1 ratio then heated for 5 minutes at 100° C. Proteins (20 μg) are separated by 7.5% SDS-PAGE and transferred to polyvinylidene fluoride (PVDF) membrane (Millipore, Waltham, Mass.) and immunoblotted. Membranes are probed serially with antibody against Stat1 pY701 or Stat3 pY705 followed by antibody against Stat 1 or Stat3 (Transduction labs, Lexington, Ky.) then antibody against β-actin (Abcam, Cambridge, Mass.). Membranes are stripped between antibody probings using Restore™ Western Blot Stripping Buffer (Thermo Fisher Scientific Inc., Waltham, Mass.) per the manufacturer's instructions. Horseradish peroxidase-conjugated goat-anti-mouse IgG is used as the secondary antibody (Invitrogen Carlsbad, Calif.) and the membranes are developed with enhanced chemiluminescence (ECL) detection system (Amersham Life Sciences Inc.; Arlington Heights, Ill.). Band intensities are quantified by densitometry. The value of each pStat3 band is divided by its corresponding total Stat3 band intensity; the results are normalized to the DMSO-treated control value. This value was plotted as a function of the log compound concentration. The best-fitting curve is determined using 4-Parameter Logistic Model/Dose Response/XLfit 4.2, IDBS software and was used to calculate the IC50 value.

MDA-MB-231 = settings: 5 mg/kg every 2-3 days; cited from earlier work
Stat3 = target: T2, Stat3 (Homo sapiens, UniProt P40763); experiment: Immunoblot assay: IL-6-mediated phosphorylation of Stat3 in HepG2 cells; type: cell-based
T2 construct: endogenous in cells; host or cells: HepG2
T2 sequence (P40763 2-770 limits assumed): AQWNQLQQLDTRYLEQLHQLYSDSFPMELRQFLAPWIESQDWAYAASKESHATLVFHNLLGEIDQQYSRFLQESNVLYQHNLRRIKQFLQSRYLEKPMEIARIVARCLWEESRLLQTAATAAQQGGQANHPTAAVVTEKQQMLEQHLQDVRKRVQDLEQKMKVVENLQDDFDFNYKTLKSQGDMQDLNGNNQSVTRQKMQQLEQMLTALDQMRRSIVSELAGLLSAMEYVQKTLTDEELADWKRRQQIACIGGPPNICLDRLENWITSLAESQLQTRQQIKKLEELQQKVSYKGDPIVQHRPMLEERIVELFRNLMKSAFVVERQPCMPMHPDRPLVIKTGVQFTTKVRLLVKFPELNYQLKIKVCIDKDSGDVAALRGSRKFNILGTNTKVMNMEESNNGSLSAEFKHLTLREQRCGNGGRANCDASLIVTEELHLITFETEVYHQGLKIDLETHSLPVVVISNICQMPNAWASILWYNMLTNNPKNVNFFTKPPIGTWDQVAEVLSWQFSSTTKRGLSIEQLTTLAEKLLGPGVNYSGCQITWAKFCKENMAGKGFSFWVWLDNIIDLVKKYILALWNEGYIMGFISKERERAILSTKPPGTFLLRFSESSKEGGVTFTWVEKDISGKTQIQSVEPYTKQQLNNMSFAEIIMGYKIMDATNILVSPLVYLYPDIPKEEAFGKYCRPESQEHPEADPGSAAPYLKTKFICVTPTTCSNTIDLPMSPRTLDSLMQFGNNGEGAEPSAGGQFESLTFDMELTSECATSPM
Procedure: Immunoblot assay. The human hepatocellular carcinoma cell line (HepG2) was grown in 6-well plates under standard conditions. […] Prestained molecular weight markers (Biorad, Hercules, Calif.) were included in each gel. […] Membranes were stripped between antibody probing using Restore™ Western Blot Stripping Buffer (Thermo Fisher Scientific Inc., Waltham, Mass.) per the manufacturer's instructions. Horseradish peroxidase-conjugated goat-anti-mouse IgG was used as the secondary antibody (Invitrogen Carlsbad, Calif.) and the membranes were developed with enhanced chemiluminescence (ECL) detection system (Amersham Life Sciences Inc.; Arlington Heights, Ill.).
Ligand-mediated pStat3 and pStat1 inhibition assays. […] Membranes are probed serially with antibody against Stat1 pY701 or Stat3 pY705 followed by antibody against Stat 1 or Stat3 (Transduction labs, Lexington, Ky.) then antibody against β-actin (Abcam, Cambridge, Mass.). Membranes are stripped between antibody probings using Restore™ Western Blot Stripping Buffer (Thermo Fisher Scientific Inc., Waltham, Mass.) per the manufacturer's instructions. Horseradish peroxidase-conjugated goat-anti-mouse IgG is used as the secondary antibody (Invitrogen Carlsbad, Calif.) and the membranes are developed with enhanced chemiluminescence (ECL) detection system (Amersham Life Sciences Inc.; Arlington Heights, Ill.). Band intensities are quantified by densitometry. The value of each pStat3 band is divided by its corresponding total Stat3 band intensity; the results are normalized to the DMSO-treated control value. This value was plotted as a function of the log compound concentration. The best-fitting curve is determined using 4-Parameter Logistic Model/Dose Response/XLfit 4.2, IDBS software and was used to calculate the IC50 value.

GFP-Stat3α = target: T3, GFP-Stat3α (Homo sapiens, UniProt P40763); experiment: High-throughput fluorescence microscopy (HTFM), cytoplasm-to-nucleus translocation inhibition in MEF/GFP-Stat3α cells; type: cell-based, murine
T3 construct: expressed in transfected cells; host or cells: murine embryonic fibroblasts (MEF) deficient in endogenous Stat3
T3 sequence (P40763 whole entry): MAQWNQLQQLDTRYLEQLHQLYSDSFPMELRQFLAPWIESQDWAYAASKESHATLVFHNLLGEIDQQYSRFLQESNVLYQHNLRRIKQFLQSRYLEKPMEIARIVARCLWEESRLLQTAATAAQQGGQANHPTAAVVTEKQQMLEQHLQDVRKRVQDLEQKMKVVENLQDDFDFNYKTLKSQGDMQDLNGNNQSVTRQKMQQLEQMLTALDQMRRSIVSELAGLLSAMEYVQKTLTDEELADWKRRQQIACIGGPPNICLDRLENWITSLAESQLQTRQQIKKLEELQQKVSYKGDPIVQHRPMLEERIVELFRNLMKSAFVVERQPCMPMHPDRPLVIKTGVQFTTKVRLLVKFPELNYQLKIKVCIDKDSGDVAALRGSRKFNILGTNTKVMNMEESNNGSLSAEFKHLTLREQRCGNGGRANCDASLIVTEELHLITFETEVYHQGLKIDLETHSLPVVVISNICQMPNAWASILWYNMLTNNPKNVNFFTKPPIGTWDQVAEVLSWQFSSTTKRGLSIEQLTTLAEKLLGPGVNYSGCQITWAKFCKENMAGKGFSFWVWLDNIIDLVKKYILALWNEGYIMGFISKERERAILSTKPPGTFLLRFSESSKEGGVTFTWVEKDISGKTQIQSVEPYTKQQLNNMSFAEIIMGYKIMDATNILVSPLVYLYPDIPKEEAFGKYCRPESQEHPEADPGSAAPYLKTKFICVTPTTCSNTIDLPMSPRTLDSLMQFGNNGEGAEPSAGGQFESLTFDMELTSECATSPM
Procedure: Confocal and highthroughput fluorescence microscopy (HTFM) of MEF/GFP-Stat3α cells were performed as described (Huang et al., 2007). […] For HTFM, cells were seeded into 96-well CC3 plates at a density of 5,000 cells/well using an automated plating system. Cells were cultured under standard conditions until 85-90% confluent. Cells were pretreated with compound for 1 hour at 37° C. then stimulated with IL-6 (200 ng/ml) and IL-6sR (250 ng/ml) for 30 minutes. Cells fixed with 4% formaldehyde in PEM Buffer (80 mM Potassium PIPES, pH 6.8, 5 mM EGTA pH 7.0, 2 mM MgCl2) for 30 minutes at 4° C., quenched in 1 mg/ml of NaBH4 (Sigma) in PEM buffer and counterstained for 1 min in 4,6-diamidino-2-phenylindole (DAPI; Sigma; 1 mg/ml) in PEM buffer. […] Plates were analyzed by automated HTFM using the Cell Lab IC Image Cytometer (IC100) platform and CytoshopVersion 2.1 analysis software (Beckman Coulter). Nuclear translocation is quantified by using the fraction localized in the nucleus (FLIN) measurement (Sharp et al., 2006).
High throughput fluorescence microscopy (HTFM), cytoplasm-to-nucleus translocation inhibition assays. […] Briefly, cells are seeded into 96-well CC3 plates at a density of 5,000 cells/well and cultured under standard conditions until 85-90% confluent. Cells are pre-treated with compound for 1 hour at 37° C. then stimulated with IL-6 (100 ng/ml) and IL-6sR (150 ng/ml) for 30 minutes. Cells are fixed with 4% formaldehyde in PEM Buffer (80 mM Potassium PIPES, pH 6.8, 5 mM EGTA pH 7.0, 2 mM MgCl2) for 30 minutes at 4° C., quenched in 1 mg/ml of NaBH4 (Sigma) in PEM buffer and counterstained for 1 min in 4,6-diamidino-2-phenylindole (DAPI; Sigma; 1 mg/ml) in PEM buffer. Plates are analyzed by automated HTFM using the Cell Lab IC Image Cytometer (IC100) platform and CytoshopVersion 2.1 analysis software (Beckman Coulter).
Nuclear translocation is quantified by using the fraction localized in the nucleus (FLIN) measurement. […] The best-fitting curve and IC50 value are determined using 4-Parameter LogisticModel/Dose Response/XLfit 4.2, IDBS software.

Stat3:hSIE complexes = target: T4, Stat3:hSIE complexes (Homo sapiens, UniProt P40763); experiment: Electrophoretic mobility shift assay (EMSA) with hSIE probe, extracts of IL-6-stimulated HepG2 cells; type: biochemical; settings: 300 μM, 60 minutes at 37° C.
T4 construct: endogenous in cells; host or cells: HepG2
T4 sequence (P40763 2-770 limits assumed, one chain of several): as the sequence (P40763 2-770 limits assumed) above
Procedure: Electrophoretic Mobility Shift Assay (EMSA): EMSA was performed using the hSIE radiolabeled duplex oligonucleotide as a probe as described (Tweardy et al., 1995). Briefly, high salt extracts were prepared from HepG2 cells incubated without or with IL-6 (30 ng/ml) for 30 minutes. Protein concentration was determined by Bradford Assay and 20 ug of extract was incubated with compound (300 uM) for 60 minutes at 37° C. […] Gels were dried and autoradiographed.

human leukemic cell line = experiment: Leukemic cell line (AML) apoptosis assay; type: cell-based
[1] = tested on: breast cancer cells with constitutively activated Stat3; settings: cited from earlier work
[2] = HepG2, compound 1 hour, IL-6 30 ng/ml 30 min, read-out: pStat3 IC50 (IL-6-mediated phosphorylation of Stat3)
[3] = MEF/GFP-Stat3α, IL-6 200 ng/ml and IL-6sR 250 ng/ml 30 min, read-out: HTM IC50 (ligand-mediated nuclear translocation of GFP-Stat3α)

CCN1C(=O)C(=Cc2ccc(-c3ccc(C(=O)O)cc3)o2)SC1=S [Cpd30, 4-{5-[(3-ethyl-4-oxo-2-thioxo-1,3-thiazolidin-5-ylidene)methyl]-2-furyl}benzoic acid]
Stat1 phosphorylation blocked (Stat1): did not

Cc1ccc(S(=O)(=O)OCC(=O)Nc2ccc(C(=O)O)c(O)c2)cc1 [S3I-201]
growth of nude mice xenografts (MDA-MB-231): inhibited growth

O=C(O)c1ccc(C=CC(=O)c2ccc3c(c2)OCCO3)cc1 [Cpd3, 4-[3-(2,3-dihydro-1,4-benzodioxin-6-yl)-3-oxo-1-propen-1-yl]benzoic acid]
pIC50 (Stat3; [2]): 4.04 | Stat1 phosphorylation blocked (Stat1): did not | pIC50 (GFP-Stat3α; [3]): 3.88 | amount of hSIE shifted (Stat3:hSIE band intensity) (Stat3:hSIE complexes): reduced the amount of hSIE shifted by half or greater

COc1ccc(S(=O)(=O)Nc2cc(-c3c(O)ccc4ccccc34)c(O)c3ccccc23)cc1 [Cpd188-9]
leukemic cell line apoptosis activity compared with parent Cpd188 (human leukemic cell line): one log better; also recorded: a log greater activity

O=[N+]([O-])c1ccc2c(c1)S(=O)(=O)C=C2 [Stattic]
active concentration range (binding, phosphorylation, translocation, DNA binding, apoptosis) [1]: 5 to 20 µM

CCOc1cc(C=C2C(=O)c3ccccc3C2=O)cc(Cl)c1OCc1cccc(C(=O)O)c1 [Cpd3-2, 3-({2-chloro-4-[(1,3-dioxo-1,3-dihydro-2H-inden-2-ylidene)methyl]-6-ethoxyphenoxy}methyl)benzoic acid]
pIC50 (Stat3; [2]): 3.84 | Stat1 phosphorylation blocked (Stat1): did not | pIC50 (GFP-Stat3α; [3]): 3.82

COC(=O)Cc1c(C)c2ccc(OCc3ccc(C(=O)OC)cc3)c(C)c2oc1=O [Cpd3-7, methyl 4-({[3-(2-methyoxy-2-oxoethyl)-4,8-dimethyl-2-oxo-2H-chromen-7-yl]oxy}methyl)benzoate]
Stat1 phosphorylation blocked (Stat1): did not

CCN1C(=O)C(=Cc2ccc(-c3cc(C(=O)O)ccc3Cl)o2)C(=O)N(CC)C1=S [Cpd30-12, 4-chloro-3-{5-[(1,3-diethyl-4,6-dioxo-2-thioxotetrahydro-5(2H)-pyrimidinylidene)methyl]-2-furyl}benzoic acid]
pIC50 (Stat3): 4.22 | Stat1 phosphorylation blocked (Stat1): blocked | pIC50 (GFP-Stat3α): < 3.52
